Values quoted from earlier work as cited in patent publication US20170014414A1, “PHARMACEUTICAL COMPOSITION” (ratiopharm GmbH, priority 2014, published 2017).

Details: teaching of WO 2012/088033

In the case of CC(=O)Nc1cccc(-n2c(=O)n(C3CC3)c(=O)c3c(Nc4ccc(I)cc4F)n(C)c(=O)c(C)c32)c1.C[S+](C)[O-] [trametinib DMSO solvate], the “stability of the solvate on exposure to moisture” value (during the formulation process) is given as “revert to an insoluble desolvated form when exposed to moisture” and the photostability is given as “can suffer from photo-instability”.
For CC(=O)Nc1cccc(-n2c(=O)n(C3CC3)c(=O)c3c(Nc4ccc(I)cc4F)n(C)c(=O)c(C)c32)c1 [trametinib in its non-solvated form, N-{3-[3-cyclopropyl-5-(2-fluoro-4-iodophenylamino)-6,8-dimethyl-2,4,7-trioxo-3,4,6,7-tetrahydro-2H-pyrido[4,3-d]pyrimidin-1-yl]phenyl}acetamide], the “solubility compared with trametinib DMSO solvate” value is given as “much less soluble than trametinib DMSO solvate”.
